Measured values published in paper PMC6719955, “HPLC-ESI-qTOF-MS/MS Characterization, Antioxidant Activities and Inhibitory Ability of Digestive Enzymes with Molecular Docking Analysis of Various Parts of Raspberry (Rubus ideaus L.)” (Antioxidants, 2019).
Like-named read-outs stand apart in the source and are kept apart here.

Columns and labels:
[1] = design: method as in Malinda et al. (2017) [34]; conditions: ref Malinda et al. (2017) [34]; cited from earlier work
[2] = biological target: α-glucosidase; experiment: α-Glucosidase inhibition activity assay (p-NPG); assay type: biochemical, Saccharomyces cerevisiae; conditions: 1 U/mL enzyme, pH 6.8, 37 °C
Text: The Folin–Ciocalteu phenol reagent and chemicals used for the antioxidant activity assay were purchased from Aladdin Industrial Corporation (Shanghai, China). Phenolic standards, trolox, p-Nitrophenyl-α-D-glucopyranoside (p-NPG, > 99.8%), porcine pancreatic α-amylase (13 U/mg), and α-glucosidase (≥ 58 U/mg solid) from Saccharomyces cerevisiae were all purchased from Sigma-Aldrich (St. Louis, MO, USA). Analytical-grade materials were purchased from Guangzhou Reagent Co. (Guangzhou, China). Formic acid and acetonitrile used for the HPLC analysis were of chromatography grade. Water was purified by the Milli-Q (Millipore, MA, USA) system and filtered through membranes with a pore size of 0.22 μm before use.
The inhibitory activity of α-glucosidase was performed as the previous reported method with modifications. Briefly, 100 μL of the extracts’ dilutions and 100 μL of 1 U/mL α-glucosidase in 0.1 M phosphate buffer solution (pH 6.8) was mixed and pre-incubated at 37 °C for 10 min. Then, 100 μL of 5 mM p-NPG solution was added, and the reaction solution was incubated for another 20 min. The reaction was terminated by adding 500 μL of 0.2 M Na2CO3 solution. The absorbance at 405 nm was recorded. […] The inhibitory potency (%) was calculated by Equation (3). (3) α-Glucosidase inhibitory potency (%) = [1−ΔAs/ΔAc]×100 where ΔAs = Aextract+enzyme − Aextract, ΔAc = Abuffer+enzyme − Abuffer.

[3] = system: α-glucosidase; conditions: cited from earlier work
[4] = Hydroxyl (OH^−) radical scavenging activity assay; conditions: extracts made with 50% methanol
Procedure: The scavenging activity of OH[…] radicals was measured based on the method described by Liu et al., 2017 [19]. The reaction mixture included 100 μL of the extracts’ dilutions, 100 μL of 6 mM […] solution, and 100 μL of 2.4 mM H2O2. After 10 min of incubation at 25°C, the mixture was incubated with 100 μL of 6 mM salicylic acid at 25 °C for 30 min, then the absorbance at 510 nm was measured. A Trolox or Vc solution (5–100 μg/mL) served as the positive control.

[5] = DPPH radical scavenging activity assay; conditions: extracts made with 50% methanol
Procedure: DPPH assay was measured based on the method described earlier. The absorbance at 517 nm was recorded by a microplate reader (SpectraMax M5 Molecular Device, CA, USA). Trolox or Vc solution (5–100 μg/mL) were served as positive controls. […] (1) DPPH radical scavenging activity (%) = (1−As−Ab/Ac)×100 where As = the absorbance of the sample extracts with DPPH solution, Ab = the absorbance of the sample extracts without DPPH solution, Ac = the absorbance of DPPH solution.

[6] = biological target: T1, porcine pancreatic α-amylase (Sus scrofa, UniProt P00690); experiment: α-Amylase inhibition activity assay (starch/DNS); assay type: biochemical; conditions: 0.5 mg/mL enzyme, pH 6.8, 37 °C
T1 construct: purchased Sigma-Aldrich
T1 sequence (P00690 16-511): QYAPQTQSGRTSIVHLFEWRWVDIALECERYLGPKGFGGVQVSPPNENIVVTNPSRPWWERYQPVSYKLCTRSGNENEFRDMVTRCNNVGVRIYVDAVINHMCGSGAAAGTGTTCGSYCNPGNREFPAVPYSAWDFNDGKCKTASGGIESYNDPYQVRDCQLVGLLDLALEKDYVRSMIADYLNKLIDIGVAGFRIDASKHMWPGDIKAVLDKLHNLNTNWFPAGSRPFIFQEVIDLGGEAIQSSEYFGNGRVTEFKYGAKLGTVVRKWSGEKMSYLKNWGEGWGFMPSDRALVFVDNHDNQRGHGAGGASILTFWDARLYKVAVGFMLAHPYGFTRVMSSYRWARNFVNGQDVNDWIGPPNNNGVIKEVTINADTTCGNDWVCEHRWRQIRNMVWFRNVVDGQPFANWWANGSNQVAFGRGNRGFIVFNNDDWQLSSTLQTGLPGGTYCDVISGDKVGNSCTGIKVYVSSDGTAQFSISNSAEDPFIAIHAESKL
Text: The Folin–Ciocalteu phenol reagent and chemicals used for the antioxidant activity assay were purchased from Aladdin Industrial Corporation (Shanghai, China). […] Analytical-grade materials were purchased from Guangzhou Reagent Co. (Guangzhou, China). Formic acid and acetonitrile used for the HPLC analysis were of chromatography grade. Water was purified by the Milli-Q (Millipore, MA, USA) system and filtered through membranes with a pore size of 0.22 μm before use.

[7] = ABTS cation radical scavenging activity assay; conditions: extracts made with 50% methanol
Procedure: ABTS assay was determined according to the method of Wang et al. (2017). The absorbance at […] was recorded by the microplate reader. Trolox or Vc solution (5–100 μg/mL) was served as positive controls. The scavenging activity (%) was calculated by Equation (2). (2) ABTS^+ radical scavenging activity (%) = (1−As−Ab/Ac)×100 where As = the absorbance of the extracts with ABTS^+ solution, Ab = the absorbance of the extracts without ABTS^+ solutionl, Ac = the absorbance of ABTS^+ solution.

[8] = constituents in raspberry, ref Zhang et al. (2010) [39]

Structure (SMILES)	DPPH radical scavenging activity IC50 [1]	α-glucosidase inhibition IC50 [2]	α-glucosidase inhibitory capacity [3, 8]	OH^− free radical scavenging IC50 [4]	DPPH radical scavenging IC50 [5]	other results
O=c1oc2c(O)c(O)cc3c(=O)oc4c(O)c(O)cc1c4c23 [EA, Ellagic acid]	4.80 µg/mL	976.32 ± 41.72 µg/mL	weakest			
C[C@@H]1O[C@@H](OC[C@H]2O[C@@H](Oc3c(-c4ccc(O)c(O)c4)oc4cc(O)cc(O)c4c3=O)[C@H](O)[C@@H](O)[C@@H]2O)[C@H](O)[C@H](O)[C@H]1O [rutin, Rutin]			strong			
O=C(O)c1cc(O)c(O)c(O)c1 [GA, Gallic acid]	2.24 µg/mL	590.34 ± 15.71 µg/mL	strong			
O=C1O[C@H]([C@@H](O)CO)C(O)=C1O [Vc, ascorbic acid]				19.83 ± 0.37 µg/mL	16.80 ± 1.31 µg/mL	
Oc1cc(O)c2c(c1)O[C@H](c1ccc(O)c(O)c1)[C@@H](O)[C@@H]2c1c(O)cc(O)c2c1O[C@H](c1ccc(O)c(O)c1)[C@@H](O)[C@@H]2c1c(O)cc(O)c2c1O[C@H](c1ccc(O)c(O)c1)[C@@H](O)C2 [PC, Procyanidin C3]		93.37 ± 5.79 µg/mL				α-amylase inhibition IC50 [6]: 92.31 ± 3.51 µg/mL; α-glucosidase inhibitory capacity ([3]; ref Wang et al. (2018) [38]): strong
Cc1c(C)c2c(c(C)c1O)CCC(C)(C(=O)O)O2 (stereo not drawn) [Trolox]				33.91 ± 1.82 µg/mL	39.90 ± 0.67 µg/mL	ABTS^+ free radical scavenging IC50 [7]: 41.50 ± 1.97 µg/mL
